# Assay: Solubility of triclosan in aqueous solutions, filtration methodology (filtrate analyzed for triclosan)
# Assay type: physicochemical
# Experimental: In the first set of experiments, the solubility of triclosan in the presence/ absence of KCl was measured using a filtration methodology in which the filtrate was analyzed for triclosan.
# In the following experiments, triclosan solubility was measured with increasing concentrations of hydroxypropyl-beta-cyclodextrin (no SLS, no KCl).
# In the next experiments, triclosan solubility was measured in the presence of hydroxypropyl-beta-cyclodextrin along with SLS and KCl.
smiles,measurement,setting,value
"Oc1cc(Cl)ccc1Oc1ccc(Cl)cc1Cl [Triclosan, 2,4,4′-trichloro-2′-hydroxy-diphenyl ether]",Appearance,0% SLS - 0% (control),Suspension and no precipitate
same,Appearance,1.5% SLS - 0% KCl,Suspension and no precipitate
same,Appearance,1.5% SLS - 3.75% KCl,Turbid and thick precipitate
same,"Triclosan solubility, %","Table 3, 0% SLS - 0% (control)",0.012%
same,"Triclosan solubility, %","Table 3, 1.5% SLS - 0% KCl",0.330%
same,"Triclosan solubility, %","Table 3, 1.5% SLS - 0% KCl, listed as triclosan",increased the solubility
same,"Triclosan solubility, %","Table 3, 1.5% SLS - 3.75% KCl",0.110%
same,"Triclosan solubility, %","Table 3, 1.5% SLS - 3.75% KCl, listed as triclosan",decreased solubility
same,"Triclosan solubility, %","Table 4, 0% HPβCD in water (no SLS, no KCl)",0.012%
same,"Triclosan solubility, %","Table 4, 10% HPβCD in water (no SLS, no KCl)",0.510%
same,"Triclosan solubility, %","Table 4, 15% HPβCD in water (no SLS, no KCl)",0.680%
same,"Triclosan solubility, %","Table 4, 20% HPβCD in water (no SLS, no KCl)",0.710%
same,"Triclosan solubility, %","Table 5, 0% SLS",0.012%
same,"Triclosan solubility, %","Table 5, 1.5% SLS - 3.75% KCl",0.011%
same,"Triclosan solubility, %","Table 5, 1.5% SLS - 3.75 KCl - 10% HPbCD",0.190%
same,"Triclosan solubility, %","Table 5, 1.5% SLS - 3.75 KCl - 20% HPbCD",0.380%
same,triclosan solubility with increasing concentrations of hydroxypropyl-beta-cyclodextrin,"no SLS, no KCl",increased in a dose-dependent manner
same,triclosan solubility in the presence of hydroxypropyl-beta-cyclodextrin along with SLS and KCl,with SLS and KCl,increased solubility
